This passage reports Ki results from patent US9062078B2, “Substituted 7-azabicyles and their use as orexin receptor modulators” (priority 2013, dated 2015).

The Ki is the dissociation constant of the complex between target and ligand, obtained from inhibition or displacement.

One experiment has as its target rat orexin 1 receptor (Rattus norvegicus, UniProt P56718). The experiment can be described thus: Rat orexin 1 receptor radioligand binding (competitive, [3H]-SB674042, HEK293 cell preparations). As to conditions: rOX1 Ki (nm).
For the molecule `Cc1ccc(-n2nccn2)c(C(=O)N2C3CCC2C(COc2ccc(C(F)(F)F)cn2)C3)n1` (racemic) [Example 47, (±)-(6-methyl-3-(2H-1,2,3-triazol-2-yl)pyridin-2-yl)(2-(((5-(trifluoromethyl)pyridin-2-yl)oxy)methyl)-7-azabicyclo[2.2.1]heptan-7-yl)methanone], affinity was put at a Ki of 460 nM.

Staying with this experiment, now noted: rat orexin 1 receptor, [3H]-SB674042 competition binding; read-out: rOX1 Ki (nm).
As for `CCOc1ccc(C)nc1C(=O)N1C2CCC1C(COc1ccc(C(F)(F)F)cn1)C2` (racemic) [Example 48, (±)-(3-ethoxy-6-methylpyridin-2-yl)(2-(((5-(trifluoromethyl)pyridin-2-yl)oxy)methyl)-7-azabicyclo[2.2.1]heptan-7-yl)methanone], the Ki was 3900 nM. As for `COc1c(F)cccc1C(=O)N1C2CCC1C(COc1ccc(Br)cn1)C2` (racemic) [Example 50, (±)-(2-(((5-bromopyridin-2-yl)oxy)methyl)-7-azabicyclo[2.2.1]heptan-7-yl)(3-fluoro-2-methoxyphenyl)methanone], the Ki came out at 460 nM.

The target in another experiment is human orexin 2 receptor (Homo sapiens (Human), UniProt O43614). The experiment is described as follows: Human orexin 2 receptor radioligand binding (competitive, [3H]-EMPA, HEK293 cell preparations). Conditions: hOX2 Ki (nm).
Sequence of human orexin 2 receptor (O43614 whole entry): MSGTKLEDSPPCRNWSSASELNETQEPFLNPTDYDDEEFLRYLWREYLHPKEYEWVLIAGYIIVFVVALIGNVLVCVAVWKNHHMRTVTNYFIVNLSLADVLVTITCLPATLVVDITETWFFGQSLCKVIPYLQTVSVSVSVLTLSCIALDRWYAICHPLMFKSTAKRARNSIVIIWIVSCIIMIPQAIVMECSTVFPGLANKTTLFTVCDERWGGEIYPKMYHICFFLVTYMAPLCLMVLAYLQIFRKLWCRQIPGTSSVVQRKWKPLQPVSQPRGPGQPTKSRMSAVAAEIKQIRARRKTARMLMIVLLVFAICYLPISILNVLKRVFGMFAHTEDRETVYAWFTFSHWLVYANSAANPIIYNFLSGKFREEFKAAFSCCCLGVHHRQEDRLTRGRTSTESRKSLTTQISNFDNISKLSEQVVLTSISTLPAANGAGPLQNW
As for `Cc1ccc(-n2nccn2)c(C(=O)N2C3CCC2C(COc2ccccn2)C3)n1` (racemic) [Example 4, (±)-(6-methyl-3-(2H-1,2,3-triazol-2-yl)pyridin-2-yl)(2-((pyridin-2-yloxy)methyl)-7-azabicyclo[2.2.1]heptan-7-yl)methanone], the Ki was determined as 927 nM. The same measure, in the same setting: the value for `CCOc1ccccc1C(=O)N1C2CCC1C(COc1nc(C)cc(C)n1)C2` (racemic) [Example 42, (±)-(2-(((4,6-dimethylpyrimidin-2-yl)oxy)methyl)-7-azabicyclo[2.2.1]heptan-7-yl)(2-ethoxyphenyl)methanone] was 253 nM; that for `CCOc1ccc(C)nc1C(=O)N1C2CCC1C(COc1ccc(C(F)(F)F)cn1)C2` (racemic) [Example 48, (±)-(3-ethoxy-6-methylpyridin-2-yl)(2-(((5-(trifluoromethyl)pyridin-2-yl)oxy)methyl)-7-azabicyclo[2.2.1]heptan-7-yl)methanone] was 4700 nM.

Molecule `Cc1ccc(-n2nccn2)c(C(=O)N2[C@@H]3CC[C@H]2[C@H](COc2ccccn2)C3)n1` [Example 5A, (6-methyl-3-(2H-1,2,3-triazol-2-yl)pyridin-2-yl)((1S,2R,4R)-2-((pyridin-2-yloxy)methyl)-7-azabicyclo[2.2.1]heptan-7-yl)methanone] yielded a Ki of 428 nM. Same read-out and setting: the value for `Cc1ccc(-n2nccn2)c(C(=O)N2C3CCC2C(COc2ccccn2)C3)n1` [Example 6, (6-methyl-3-(2H-1,2,3-triazol-2-yl)pyridin-2-yl)((1S,2R,4R)-2-((pyridin-2-yloxy)methyl)-7-azabicyclo[2.2.1]heptan-7-yl)methanone] was 428 nM.

The experiment is the same for the next values; noted with them: human orexin 2 receptor, [3H]-EMPA competition binding; read-out: hOX2 Ki (nm).
Regarding `Cc1ccc(-n2nccn2)c(C(=O)N2C3CCC2C(COc2ccc(F)cn2)C3)c1` (racemic) [Example 9, (±)-(2-(((5-fluoropyridin-2-yl)oxy)methyl)-7-azabicyclo[2.2.1]heptan-7-yl)(5-methyl-2-(2H-1,2,3-triazol-2-yl)phenyl)methanone], the Ki stood at 57 nM. For the molecule `Cc1ccc(-n2nccn2)c(C(=O)N2C3CCC2C(COc2ccc(C(F)(F)F)cn2)C3)n1` (racemic) [Example 47, (±)-(6-methyl-3-(2H-1,2,3-triazol-2-yl)pyridin-2-yl)(2-(((5-(trifluoromethyl)pyridin-2-yl)oxy)methyl)-7-azabicyclo[2.2.1]heptan-7-yl)methanone], the Ki was 418 nM. For the molecule `COc1c(F)cccc1C(=O)N1C2CCC1C(COc1ccc(Br)cn1)C2` (racemic) [Example 50, (±)-(2-(((5-bromopyridin-2-yl)oxy)methyl)-7-azabicyclo[2.2.1]heptan-7-yl)(3-fluoro-2-methoxyphenyl)methanone], the Ki stood at 4400 nM.

Consider `COc1c(F)cccc1C(=O)N1C2CCC1C(COc1ccc(F)cn1)C2` (racemic) [Example 107, (±)-((3-fluoro-2-methoxyphenyl)(2-(((5-fluoropyridin-2-yl)oxy)methyl)-7-azabicyclo[2.2.1]heptan-7-yl)methanone], for which the Ki is 2200 nM. As to `COc1c(F)cccc1C(=O)N1C2CCC1C(COc1ccc(F)cn1)C2` (racemic) [Example 173, (±)-(3-fluoro-2-methoxyphenyl)(2-(((5-fluoropyridin-2-yl)oxy)methyl)-7-azabicyclo[2.2.1]heptan-7-yl)methanone], the Ki was found to be 3000 nM. With `O=C(c1cc(F)ccc1-c1ncccn1)N1[C@@H]2CC[C@H]1[C@H](COc1ccccn1)C2` [Example 1, (5-fluoro-2-(pyrimidin-2-yl)phenyl)((1S,2R,4R)-2-((pyridin-2-yloxy)methyl)-7-azabicyclo[2.2.1]heptan-7-yl)methanone], the Ki was determined as 276 nM.

Turning to `Cc1ccc(-n2nccn2)c(C(=O)N2[C@@H]3CC[C@H]2[C@H](COc2ccc(F)cn2)C3)c1` [Example 10A, ((1S,2R,4R)-2-(((5-fluoropyridin-2-yl)oxy)methyl)-7-azabicyclo[2.2.1]heptan-7-yl)(5-methyl-2-(2H-1,2,3-triazol-2-yl)phenyl)methanone], the Ki came to 32 nM. Same read-out and setting: as for `CCOc1ccc2ccccc2c1C(=O)N1[C@@H]2CC[C@H]1[C@H](Nc1cnc(C(F)(F)F)cn1)C2` [Example 239, (2-ethoxynaphthalen-1-yl)((1S,2R,4R)-2-((5-(trifluoromethyl)pyrazin-2-yl)amino)-7-azabicyclo[2.2.1]heptan-7-yl)methanone], the figure is 490 nM.

As to `CCOc1ncc2ccccc2c1C(=O)N1[C@@H]2CC[C@H]1[C@H](Nc1cnc(C(F)(F)F)cn1)C2` [Example 246, (3-ethoxyisoquinolin-4-yl)((1S,2R,4R)-2-((5-(trifluoromethyl)pyrazin-2-yl)amino)-7-azabicyclo[2.2.1]heptan-7-yl)methanone], the Ki stood at 1020 nM. On to `O=C(c1cccc(F)c1-n1nccn1)N1[C@@H]2CC[C@H]1[C@H](Nc1cnc(C(F)(F)F)cn1)C2` [Example 252, (3-fluoro-2-(2H-1,2,3-triazol-2-yl)phenyl)((1S,2R,4R)-2-((5-(trifluoromethyl)pyrazin-2-yl)amino)-7-azabicyclo[2.2.1]heptan-7-yl)methanone], for which the Ki came out at 1230 nM.

`O=C(c1cc(F)ccc1-n1nccn1)N1[C@@H]2CC[C@H]1[C@H](Nc1cnc(C(F)(F)F)cn1)C2` [Example 256, (5-fluoro-2-(2H-1,2,3-triazol-2-yl)phenyl)((1S,2R,4R)-2-((5-(trifluoromethyl)pyrazin-2-yl)amino)-7-azabicyclo[2.2.1]heptan-7-yl)methanone]: the Ki is 1100 nM. `O=C(c1cccc(F)c1-c1cnccn1)N1[C@@H]2CC[C@H]1[C@H](Nc1cnc(C(F)(F)F)cn1)C2` [Example 265, (3-fluoro-2-(pyrazin-2-yl)phenyl)-((1S,2R,4R)-2-((5-(trifluoromethyl)pyrazin-2-yl)amino)-7-azabicyclo[2.2.1]heptan-7-yl)methanone]: the Ki was 188 nM. Turning to `Cc1cccc(C(=O)N2[C@@H]3CC[C@H]2[C@H](Nc2cnc(C(F)(F)F)cn2)C3)c1-c1ncccn1` [Example 273, (3-methyl-2-(pyrimidin-2-yl)phenyl)((1S,2R,4R)-2-((5-(trifluoromethyl)pyrazin-2-yl)amino)-7-azabicyclo[2.2.1]heptan-7-yl)methanone], the Ki came out at 328 nM. Consider `Cc1cccc(C(=O)N2[C@@H]3CC[C@H]2[C@H](Nc2ncc(C(F)(F)F)cn2)C3)c1-c1ncccn1` [Example 281, (3-methyl-2-(pyrimidin-2-yl)phenyl)((1S,2R,4R)-2-((5-(trifluoromethyl)pyrimidin-2-yl)amino)-7-azabicyclo[2.2.1]heptan-7-yl)methanone], for which the Ki came out at 1200 nM. Still for that read-out and setting: as for `Cc1cccc(C(=O)N2[C@@H]3CC[C@H]2[C@H](Nc2ncc(C(F)(F)F)cn2)C3)c1-c1ncco1` [Example 283, (3-methyl-2-(oxazol-2-yl)phenyl)((1S,2R,4R)-2-((5-(trifluoromethyl)pyrimidin-2-yl)amino)-7-azabicyclo[2.2.1]heptan-7-yl)methanone], the figure is 417 nM; as for `COc1cccc(-c2ncccn2)c1C(=O)N1[C@@H]2CC[C@H]1[C@H](Nc1cnc(C(F)(F)F)cn1)C2` [Example 289, (2-methoxy-6-(pyrimidin-2-yl)phenyl)((1S,2R,4R)-2-((5-(trifluoromethyl)pyrazin-2-yl)amino)-7-azabicyclo[2.2.1]heptan-7-yl)methanone], 173 nM; as for `O=C(c1c(F)cccc1-c1ncccn1)N1[C@@H]2CC[C@H]1[C@H](Nc1cnc(C(F)(F)F)cn1)C2` [Example 290, (2-fluoro-6-(pyrimidin-2-yl)phenyl)((1S,2R,4R)-2-((5-(trifluoromethyl)pyrazin-2-yl)amino)-7-azabicyclo[2.2.1]heptan-7-yl)methanone], 558 nM. On the same count and under the same terms, as for `CCOc1ccc2cccnc2c1C(=O)N1[C@@H]2CC[C@H]1[C@H](Nc1cnc(C(F)(F)F)cn1)C2` [Example 291, (7-ethoxyquinolin-8-yl)((1S,2R,4R)-2-((5-(trifluoromethyl)pyrazin-2-yl)amino)-7-azabicyclo[2.2.1]heptan-7-yl)methanone], the figure is 425 nM; as for `Cc1cccc(C(=O)N2[C@@H]3CC[C@H]2[C@H](Nc2ncc(C(F)(F)F)cn2)C3)c1-c1ccccn1` [Example 293, (3-methyl-2-(pyridin-2-yl)phenyl)((1S,2R,4R)-2-((5-(trifluoromethyl)pyrimidin-2-yl)amino)-7-azabicyclo[2.2.1]heptan-7-yl)methanone], 1100 nM. The same measure, in the same setting: as for `O=C(c1cccc(F)c1-n1nccn1)N1[C@@H]2CC[C@H]1[C@H](Nc1ccc(C(F)(F)F)cn1)C2` [Example 294, (3-fluoro-2-(2H-1,2,3-triazol-2-yl)phenyl)((1S,2R,4R)-2-((5-(trifluoromethyl)pyridin-2-yl)amino)-7-azabicyclo[2.2.1]heptan-7-yl)methanone], the figure is 1200 nM; as for `Cc1cccc(C(=O)N2[C@@H]3CC[C@H]2[C@H](Nc2ccc(C(F)(F)F)cn2)C3)c1-n1nccn1` [Example 295, (3-methyl-2-(2H-1,2,3-triazol-2-yl)phenyl)((1S,2R,4R)-2-((5-(trifluoromethyl)pyridin-2-yl)amino)-7-azabicyclo[2.2.1]heptan-7-yl)methanone], 257 nM; as for `Cc1cccc(C(=O)N2[C@@H]3CC[C@H]2[C@H](Nc2ccc(C(F)(F)F)cn2)C3)c1-c1ncco1` [Example 296, (3-methyl-2-(oxazol-2-yl)phenyl)((1S,2R,4R)-2-((5-(trifluoromethyl)pyridin-2-yl)amino)-7-azabicyclo[2.2.1]heptan-7-yl)methanone], 114 nM.

The experiment is the same for the next values; noted with them: read-out: hOX2 Ki (nm).
On to `O=C(c1ccccc1-n1nccn1)N1C2CCC1C(Nc1cnc(C(F)(F)F)cn1)C2` (single isomer, unassigned) [Example 183a], for which the Ki was greater than 10000 nM. Still for that read-out and setting: as for `Cc1ccc(-n2nccn2)c(C(=O)N2[C@H]3CC[C@@H]2[C@@H](COc2ccccn2)C3)n1` [Example 5B, (6-methyl-3-(2H-1,2,3-triazol-2-yl)pyridin-2-yl)((1R,2S,4S)-2-((pyridin-2-yloxy)methyl)-7-azabicyclo[2.2.1]heptan-7-yl)methanone], the figure is greater than 10000 nM.
